Data reported in PMC9323733, “Efficacy of Vafidemstat in Experimental Autoimmune Encephalomyelitis Highlights the KDM1A/RCOR1/HDAC Epigenetic Axis in Multiple Sclerosis” (Pharmaceutics, 2022).

Legend:
[1] = biological target: T1, human S1P1 receptor (Homo sapiens, UniProt P21453); test: CellKey impedance assay in CHO cells, agonistic and antagonistic effect; format: cell-based; conditions: GPCR based impedance assays
T1 construct: host or cells: CHO cells
Protocol: Cell on impedance modulation, using the CellKey (Cellular Dielectric Spectroscopy) detection method (CellKey 96, MDS Sciex, Concord, ON, Canada) at Eurofins Pharma Discovery Services (Celle-Lévescault, France). CHO cells were seeded onto a 96-well plate at 15.104 cells/well in HBSS buffer (Invitrogen), 20 mM HEPES (Invitrogen), 10% FCS (Invitrogen), and 0.1% BSA (Sigma), allowed to equilibrate for 60 min at 28 °C. DMSO solutions of compounds were diluted in HBSS and 0.1% BSA. Plates were placed onto the system, and measurements were made at a temperature of 28 °C. To measure the agonistic effect, compounds and controls in duplicate were added simultaneously to all of the wells using an integrated fluidics system. Impedance measurements were monitored for 10 min after ligand addition. […] To measure the antagonistic effect, compounds and controls in duplicate were pre-incubated for 15 min before the addition of the reference agonist S1P at 0.01 µM (EC80). Impedance measurements were monitored for 10 min.
Evaluation of the agonistic (a) and antagonist (b) effect of the compounds on the human S1P1 receptor. […] Data are expressed as percentage of control (no compound) activity, n = 2. TSA was used as a control; (d) Cellular HDAC activity assay. […] SAHA was used as a control. Ponceau S staining was used as loading control. Veh: Vehicle. […] TSA: Trichostatin A. SAHA: suberoylanilide hydroxamic acid.

[2] = system: SMI-32 positive motoneurons in spinal cord explants; test: Spinal cord organotypic cultures, chronic excitotoxicity (THA); format: cell-based, rat; conditions: ORY-2001 5, 25 and 125 nM, THA 100 µM
Protocol: Lumbar spinal cords were aseptically obtained from 8-day-old Sprague-Dawley rat pups previously euthanized by pentobarbital overdose. The tissue was placed in ice-cold high glucose containing (6.4 mg/mL) Gey’s Balanced Salt Solution (GBSS). Meninges and roots were removed, and the spinal cord was transversely sectioned into 350 µm thick slices with a McIlwain Tissue Chopper. Four slices were carefully transferred onto 30-mm-diameter Millicell-CM membranes (0.4 µm, Millipore, Billerica, MA, USA) into a 6-well plate (35-mm-diameter, Falcon) containing 1 mL of incubation medium [50% (v/v) minimal essential medium (MEM), 25 mM Hepes, 25% (v/v) heat- inactivated horse serum, 2 mM glutamine and 25% (v/v) Hank’s Balanced Salt Solution (HBSS) supplemented with 25.6 mg/mL glucose; pH 7.2. Cultures were allowed to stabilize for 1 week at 37 °C in a 5% CO2/95% air humidified environment, and thereafter medium was changed twice per week. After 7 days of the explant culture, chronic glutamate excitotoxicity was induced by exposure at DL-threo-β-hydroxyaspartic acid (THA; 100 µM; Sigma-Aldrich, Saint Louis, MO, USA). […] Motoneurons, identified by SMI-32 immunostaining and localization in the ventral horn, were counted by using the Cell Counter plugin of ImageJ software. A minimum of 12 sections were evaluated for each experimental condition.

T1 sequence (P21453 whole entry): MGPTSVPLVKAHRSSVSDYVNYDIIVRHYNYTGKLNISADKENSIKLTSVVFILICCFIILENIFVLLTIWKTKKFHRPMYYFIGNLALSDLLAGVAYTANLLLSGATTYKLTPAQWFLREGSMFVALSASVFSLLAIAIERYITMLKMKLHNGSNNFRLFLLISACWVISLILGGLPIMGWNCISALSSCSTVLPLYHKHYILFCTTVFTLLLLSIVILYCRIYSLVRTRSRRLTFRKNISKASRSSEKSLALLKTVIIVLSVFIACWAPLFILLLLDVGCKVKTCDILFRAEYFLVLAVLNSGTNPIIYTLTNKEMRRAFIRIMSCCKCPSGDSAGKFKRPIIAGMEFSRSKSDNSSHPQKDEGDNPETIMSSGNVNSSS

Compound: Nc1nnc(CN[C@@H]2C[C@H]2c2ccc(OCc3ccccc3)cc2)o1 [ORY-2001]
- agonist and antagonist activity at S1P1 receptor [1]: neither ORY-2001 nor ORY-LSD1 (at concentrations well above those needed to fully inhibit KDM1A) showed any activity
- agonist and antagonist activity at S1P1 receptor ([1]; listed as vafidemstat): does not target the S1PR
- protection of motoneurons compared with riluzole (5 µM) [2]: outperformed the effect exerted by riluzole
- survival of SMI32 positive motoneurons challenged with THA ([2]; to 28 DIV): protected the motoneurons from chronic excitotoxic stress at all doses tested
